As a reminder, the inhibition is the percentage by which the read-out fell short of the control. The low end stands for a response near the control, the high end for a response far below the control.

The first test addresses T1, hDGAT1 (Homo sapiens, UniProt O75907).
T1 construct: host or cells: Sf9 insect cells (baculovirus); microsomal preparation
T1 sequence (O75907 1-488): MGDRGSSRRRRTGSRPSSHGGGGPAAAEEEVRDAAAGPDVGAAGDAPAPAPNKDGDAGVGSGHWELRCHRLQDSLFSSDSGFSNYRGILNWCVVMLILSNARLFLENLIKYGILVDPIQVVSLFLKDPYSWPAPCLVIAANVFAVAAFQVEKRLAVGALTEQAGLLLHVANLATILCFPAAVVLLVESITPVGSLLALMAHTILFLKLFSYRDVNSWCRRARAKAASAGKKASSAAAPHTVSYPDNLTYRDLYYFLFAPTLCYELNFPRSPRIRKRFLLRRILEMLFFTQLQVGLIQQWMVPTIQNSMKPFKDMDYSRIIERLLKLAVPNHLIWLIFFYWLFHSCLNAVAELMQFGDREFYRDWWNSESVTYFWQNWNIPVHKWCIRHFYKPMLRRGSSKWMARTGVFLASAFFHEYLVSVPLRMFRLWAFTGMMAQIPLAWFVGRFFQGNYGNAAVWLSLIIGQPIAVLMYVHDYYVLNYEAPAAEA
Description: In-vitro DGAT1 assay (hDGAT1 microsomes from Sf9 cells, 14C oleoyl CoA, triglyceride formation). The class given is biochemical. The note with it: At 1 μM. Put shortly:
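Compounds tested in duplicate at 10, 5 and 1 μM for 10 min at 37 °C. Reaction: Sf9-expressed hDGAT1 microsomes (2.5–10 μg), [14C]oleoyl-CoA plus 409.5–1638 μM dioleoylglycerol, pH 7.4 Tris-HCl with fatty-acid-free BSA. Radiolabelled triglyceride extracted into heptane and scintillation-counted.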
Consider `Cc1ccc(NC(=O)Nc2ccc(-c3cc(C(=O)N[C@H](C(=O)O)C(C)C)on3)cc2)cc1C` [Example 173, (S)-2-(3-(4-(3-(3,4-dimethylphenyl)ureido)phenyl)isoxazole-5-carboxamido)-3-methylbutanoic acid], for which the inhibition at 1 µM was in the range of 75 to 100%.

In turn, `CC(C)[C@@H](NC(=O)c1cc(-c2ccc(NC(=O)Nc3ccccc3Cl)cc2)no1)C(=O)O` [Example 221, (R)-2-(3-(4-(3-(2-Chlorophenyl)ureido)phenyl)isoxazole-5-carboxamido)-3-methylbutanoic acid] returned an inhibition at 1 µM of 75 to 100%. `COc1ccc(OC)c(NC(=O)Nc2ccc(-c3cc(C(=O)N[C@H](C(=O)O)C(C)C)on3)cc2)c1` [Example 166, (S)-2-(3-(4-(3-(2,5-Dimethoxyphenyl)ureido)phenyl)isoxazole-5-carboxamido)-3-methylbutanoic acid] showed an inhibition at 1 µM of 50 to 75%. Same read-out and setting: the same measure for `O=C(Nc1ccc(-c2cc(C(=O)N3CCC[C@H]3C(=O)O)on2)cc1)Nc1ccccc1F` [Example 262, (S)-1-(3-(4-(3-(2-Fluorophenyl)ureido)phenyl)isoxazole-5-carbonyl) pyrrolidine-2-carboxylic acid]: 50 to 75%.

Staying with this test, now noted: At 5 μM.
`COC(=O)C(NC(=O)c1cc(-c2ccc(NC(=O)Nc3ccc(F)cc3C)cc2)no1)C(C)C` (stereo not shown) [Example 284, Methyl 2-(3-(4-(3-(4-fluoro-2-methylphenyl)ureido)phenyl)isoxazole-5-carboxamido)-3-methylbutanoate]: the inhibition at 5 µM lay within 50 to 75%.

Molecule `CC(C)C(NC(=O)c1cc(-c2ccc(NC(=O)Nc3ccc(-c4cc(C(=O)NC(C(=O)O)C(C)C)on4)cc3)cc2)no1)C(=O)O` (stereo not shown) [Example 282, 2-({3-[4-(3-{4-[5-(1-Carboxy-2-methyl-propylcarbamoyl)-isoxazol-3-yl]-phenyl}-ureido)-phenyl]-isoxazol-5-carbonyl}-amino)-3-methyl-butyric acid] showed an inhibition at 5 µM of 0 to 50%.

Staying with this test, now noted: At 10 μM.
`CC(C)[C@H](NC(=O)c1cc(-c2cccc(Nc3nc4ccc(F)cc4s3)c2)no1)C(=O)O` [Example 23, (S)-2-({3-[3-(6-Fluoro-benzothiazol-2-ylamino)-phenyl]-isoxazole-5-carbonyl}-amino)-3-methyl-butyric acid] gave an inhibition at 10 µM of 0 to 50%. Same read-out and setting: to `COC(=O)[C@H](CO)NC(=O)c1cc(-c2ccc(Nc3nc4ccc(F)cc4s3)cc2)no1` [Example 9, (S)-2-({3-[4-(6-Fluoro-benzothiazol-2-ylamino)-phenyl]-isoxazole-5-carbonyl}-amino)-3-hydroxy-propionic acid methyl ester] belongs 0 to 50%; to `CC(C)C[C@H](NC(=O)c1cc(-c2ccc(NC(=O)Nc3ccc(F)cc3)cc2)no1)C(=O)O` [Example 87, (S)-2-[(3-{4-[3-(4-Fluoro-phenyl)-ureido]-phenyl}-isoxazole-5-carbonyl)-amino]-4-methyl-pentanoic acid], 75 to 100%.

As for “7-{3-[4-(6-Fluoro-benzothiazol-2-ylamino)-phenyl]-isoxazole-5-yl}-9-oxa-6,8-diaza-spiro[4,5]dec-7-en-10-one [Example 67]”, the “% inhibition of hDGAT1” value was “+++ (>75% Inhibition ≦100)”. Take `O=C(O)[C@@H]1CCCN1C(=O)c1cc(-c2ccc(Nc3nc4ccc(F)cc4s3)cc2)no1` [Example 19, (S)-1-{3-[4-(6-Fluoro-benzothiazol-2-ylamino)-phenyl]-isoxazole-5-carbonyl}-pyrrolidine-2-carboxylic acid]: the inhibition at 10 µM is 50 to 75%. For the molecule “(S)-({3-[4-(6-Fluoro-benzothiazol-2-ylamino)-phenyl]-isoxazole-5-carbothioyl}-amino)-phenyl-acetic acid [Example 55]”, the “% inhibition of hDGAT1” value is “++ (>50% Inhibition ≦75)”.

`COC(=O)[C@H](CC(C)C)NC(=S)c1cc(-c2ccc(Nc3nc4ccc(F)cc4s3)cc2)no1` [Example 48, (S)-2-({3-[4-(6-Fluoro-benzothiazol-2-ylamino)-phenyl]-isoxazole-5-carbothioyl}-amino)-4-methyl-pentanoic acid methyl ester] registered an inhibition at 10 µM of 0 to 50%.

The values are drawn from patent US8835428B2, “Diacylglycerol acyltransferase inhibitors” (Piramal Enterprises Limited, priority 2008, dated 2014).
